According to US4742045A, “Glycopeptide antibiotics” (SmithKline Beckman Corporation, priority 1986, dated 1988):
In brackets after ≈: the same amount, converted by molar mass. Read-outs that look alike come from different tables or passages of the source.

Key:
Group A Strep. = assay: MIC against an expanded panel; format: cell-based; conditions: Table 4, Group A Strep. (6 strains)
Excerpt: (§1) The number of strains tested is shown in parentheses below each organism. The average MIC is reported in μg/ml.

Coag-neg. Staphylococci = assay: MIC against an expanded panel; format: cell-based; conditions: Table 4, Coag-neg. Staphylococci (24 strains)
Excerpt: as §1

Viridans = assay: MIC against an expanded panel; format: cell-based; conditions: Table 4, Viridans (2 strains)
Excerpt: as §1

Group B Strep. = assay: MIC against an expanded panel; format: cell-based; conditions: Table 4, Group B Strep. (4 strains)
Excerpt: as §1

JK Diptheroids = assay: MIC against an expanded panel; format: cell-based; conditions: Table 4, JK Diptheroids (19 strains)
Excerpt: as §1

S. epidermidis = assay: mice infected i.p., antibiotic i.v. 1 hr post infection, ED50; format: in vivo; conditions: Staphylococcus epidermidis, 1 h
Description: (§2) In Table 6, below, is shown the ED50 in mg/kg of HPB4 in comparison to vancomycin and teicoplanin. Mice were injected i.p. with the indicated organism and then i.v., 1 hr post infection, with the indicated antibiotic.

S. haemolyticus = assay: as above; format: in vivo; conditions: Staphylococcus haemolyticus, 1 h
Description: as §2

S. faecalis = assay: mice infected intraperitoneally, dosed 1 hr after infection, ED50; format: in vivo; conditions: Enterococcus faecalis, 1 h
Description: (§3) The in vivo activity of the CWI-785 complex and its components and hydrolysis products was confirmed by administering selected CWI-785 antibiotics to mice infected with various gram-positive pathogens. In one representative assay, in which mice infected intraperitoneally with 46.8 LD50 's of S. aureus (strain 1, Tables 1 and 2) were dosed once, subcutaneously one hour after infection, the following ED50 's (mg/kg) were observed: CWI-785B: 2.4, CWI-785C: 3.1, CWI-785: 3.8, HPB3: 0.9, vancomycin: 0.7. In a second representative assay carried out as above except that mice were infected with 3.17 LD50 's of S. faecalis (strain 9, Table 2), the following ED50 's were observed: HPB3 hydrochloride: 1.6, HPB4 hydrochloride: 1.6, vancomycin: 2.2, teicoplanin: 1.3.
as §2

S. aureus = assay: as above; format: in vivo; conditions: Staphylococcus aureus, 1 h, antibiotic i.v. 1 hr post infection
Description: as §3, §2

[1] = tested on: Staphylococcus epidermidis; assay: standard microtiter assay, minimum inhibitory concentration; format: cell-based; conditions: Staphylococcus epidermidis
In short: (§4)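 Broth microtiter MIC (μg/ml) of CWI-785 antibiotic, as complex, individual components or HCl salts, against several staphylococcal strains. Some assays run without serum or in 50% human or 50% mouse serum.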

[2] = tested on: Staphylococcus saprophyticus; assay: as above; format: cell-based; conditions: Staphylococcus saprophyticus
In short: as §4

[3] = tested on: Staphylococcus haemolyticus; assay: as above; format: cell-based; conditions: Staphylococcus haemolyticus
In short: as §4

Staphylococcus aureus = assay: as above; format: cell-based
In short: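 Standard microtiter broth assays, with MIC reported in μg/ml and averaged over several strains per species. The CWI-785 complex was tested, in some cases as HCl salts. Some runs used no serum, 50% human serum or 50% mouse serum.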

Streptococcus pyogenes = assay: as above; format: cell-based; conditions: Streptococcus pyogenes, read-out: minimum inhibitory concentration
Excerpt: Representative results of standard microtiter assays are reported in Tables 1, 2 and 3 which follow, as the minimum inhibitory concentration of antibiotic (μg/ml).
In Table 1, test organisms 1-13 were different strains of Staphylococcus aureus, and 14-16 were different strains of Staphylococcus epidermidis. In Table 2, test organisms 1-5 were different strains of S. aureus; 6, 8, 12 and 14 were different strains of S. epidermidis; 7 was a Staphylococcus haemolyticus; 9 and 10 were different strains of Streptococcus faecalis; 11 was a Streptococcus pyogenes; and 13 was a Staphylococcus saprophyticus. In Table 3, test organisms 1-3 were different strains of S. aureus; 4 and 6 were different strains of S. epidermidis; 5 was a S. haemolyticus and 7 and 8 were different strains of Streptococcus faecalis. Except where individual components are indicated, the CWI-785 antibiotic employed was the CWI-785 complex; in some cases, HCl salts of the CWI-785 antibiotic were employed.

STAPH. AUREUS HH 127 = assay: prophylactic activity, dosing preinfection; format: in vivo, mice; conditions: for ED50: Staphylococcus aureus, in Mus musculus

CN[C@H](CC(C)C)C(=O)N[C@H]1C(=O)N[C@@H](CC(N)=O)C(=O)N[C@H]2C(=O)N[C@H]3C(=O)N[C@H](C(=O)N[C@H](C(=O)O)c4cc(O)cc(O)c4-c4cc3ccc4O)[C@H](O)c3ccc(c(Cl)c3)Oc3cc2cc(c3O[C@@H]2O[C@H](CO)[C@@H](O)[C@H](O)[C@H]2O[C@H]2C[C@](C)(N)[C@H](O)[C@H](C)O2)Oc2ccc(cc2Cl)[C@H]1O [Vancomycin, vancomycin]
MIC RANGE (Group A Strep.): 0.04 to 0.8 µg/mL | MIC50 (Group A Strep.; read-out: MIC50): 0.4 µg/mL (≈ 0.276 µM) | MIC RANGE (Coag-neg. Staphylococci): 0.4 to 6.3 µg/mL | MIC50 (Coag-neg. Staphylococci; read-out: MIC50): 3.1 µg/mL (≈ 2.14 µM) | MIC RANGE (Viridans): 0.05 to 0.8 µg/mL | MIC RANGE (Group B Strep.): 0.4 to 0.8 µg/mL | MIC RANGE (JK Diptheroids): 0.8 to 1.6 µg/mL | MIC50 (JK Diptheroids; read-out: MIC50): 1.6 µg/mL (≈ 1.1 µM) | ED50 (S. epidermidis): < 1.25 mg/kg | ED50 (S. haemolyticus): 10 mg/kg | ED50 (S. faecalis): 1.3 mg/kg | ED50 (S. aureus; S. aureus 2620 (24 × LD50) i.p.): 1.4 mg/kg | ED50 (S. aureus; S. aureus HH 127 (35 × LD50) i.p.): 0.4 mg/kg | MIC ([1]; Table 5 organism 2 S. epidermidis, 50% Hum. Serum): 3.1 µg/mL (≈ 2.14 µM) | MIC ([1]; Table 5 organism 2 S. epidermidis, 50% Mse. Serum): 3.1 µg/mL (≈ 2.14 µM) | MIC ([1]; Table 5 organism 2 S. epidermidis, No Serum): 1.6 µg/mL (≈ 1.1 µM) | MIC ([1]; Table 5 organism 4 S. epidermidis, 50% Hum. Serum): 3.1 µg/mL (≈ 2.14 µM) | MIC ([1]; Table 5 organism 4 S. epidermidis, 50% Mse. Serum): 3.1 µg/mL (≈ 2.14 µM) | MIC ([1]; Table 5 organism 4 S. epidermidis, No Serum): 1.6 µg/mL (≈ 1.1 µM) | MIC ([1]; Table 5 organism 5 S. epidermidis, 50% Hum. Serum): ≤ 0.1 µg/mL | MIC ([1]; Table 5 organism 5 S. epidermidis, 50% Mse. Serum): 3.1 µg/mL (≈ 2.14 µM) | MIC ([1]; Table 5 organism 5 S. epidermidis, No Serum): 1.6 µg/mL (≈ 1.1 µM) | MIC ([1]; read-out: minimum inhibitory concentration, Table 1 test organism 14, S. epidermidis strain): 1.6 µg/mL (≈ 1.1 µM) | MIC ([1]; read-out: minimum inhibitory concentration, Table 1 test organism 15, S. epidermidis strain): 3.1 µg/mL (≈ 2.14 µM) | MIC ([1]; read-out: minimum inhibitory concentration, Table 1 test organism 16, S. epidermidis strain): 1.6 µg/mL (≈ 1.1 µM) | MIC ([1]; read-out: minimum inhibitory concentration, Table 2 test organism 6, S. epidermidis strain): 1.6 µg/mL (≈ 1.1 µM) | MIC ([1]; read-out: minimum inhibitory concentration, Table 2 test organism 8, S. epidermidis strain): 1.6 µg/mL (≈ 1.1 µM) | MIC ([1]; read-out: minimum inhibitory concentration, Table 2 test organism 12, S. epidermidis strain): 1.6 µg/mL (≈ 1.1 µM) | MIC ([1]; read-out: minimum inhibitory concentration, Table 2 test organism 14, S. epidermidis strain): 1.6 µg/mL (≈ 1.1 µM) | MIC ([2]; Table 5 organism 6 S. saprophyticus, 50% Hum. Serum): 3.1 µg/mL (≈ 2.14 µM) | MIC ([2]; Table 5 organism 6 S. saprophyticus, 50% Mse. Serum): 6.3 µg/mL (≈ 4.35 µM) | MIC ([2]; Table 5 organism 6 S. saprophyticus, No Serum): 1.6 µg/mL (≈ 1.1 µM) | MIC ([2]; read-out: minimum inhibitory concentration, Table 2 test organism 13, Staphylococcus saprophyticus): 1.6 µg/mL (≈ 1.1 µM) | MIC ([3]; Table 5 organism 3 S. haemolyticus, 50% Hum. Serum): 3.1 µg/mL (≈ 2.14 µM) | MIC ([3]; Table 5 organism 3 S. haemolyticus, 50% Mse. Serum): 6.3 µg/mL (≈ 4.35 µM) | MIC ([3]; Table 5 organism 3 S. haemolyticus, No Serum): 3.1 µg/mL (≈ 2.14 µM) | MIC ([3]; read-out: minimum inhibitory concentration, Table 2 test organism 7, Staphylococcus haemolyticus): 3.1 µg/mL (≈ 2.14 µM) | MIC50 (Staphylococcus aureus; Staphylococcus aureus): 1.6 µg/mL (≈ 1.1 µM) | MIC (Staphylococcus aureus; Staphylococcus aureus, Table 5 organism 1 S. aureus, 50% Hum. Serum): 3.1 µg/mL (≈ 2.14 µM) | MIC (Staphylococcus aureus; Staphylococcus aureus, Table 5 organism 1 S. aureus, 50% Mse. Serum): 1.6 µg/mL (≈ 1.1 µM) | MIC (Staphylococcus aureus; Staphylococcus aureus, Table 5 organism 1 S. aureus, No Serum): 1.6 µg/mL (≈ 1.1 µM) | MIC (Staphylococcus aureus; Staphylococcus aureus, read-out: minimum inhibitory concentration, Table 1 test organism 1, S. aureus strain): 1.6 µg/mL (≈ 1.1 µM) | MIC (Staphylococcus aureus; Staphylococcus aureus, read-out: minimum inhibitory concentration, Table 1 test organism 2, S. aureus strain): 1.6 µg/mL (≈ 1.1 µM) | MIC (Staphylococcus aureus; Staphylococcus aureus, read-out: minimum inhibitory concentration, Table 1 test organism 3, S. aureus strain): 1.6 µg/mL (≈ 1.1 µM) | MIC (Staphylococcus aureus; Staphylococcus aureus, read-out: minimum inhibitory concentration, Table 1 test organism 4, S. aureus strain): 1.6 µg/mL (≈ 1.1 µM) | MIC (Staphylococcus aureus; Staphylococcus aureus, read-out: minimum inhibitory concentration, Table 1 test organism 5, S. aureus strain): 1.6 µg/mL (≈ 1.1 µM) | MIC (Staphylococcus aureus; Staphylococcus aureus, read-out: minimum inhibitory concentration, Table 1 test organism 6, S. aureus strain): 1.6 µg/mL (≈ 1.1 µM) | MIC (Staphylococcus aureus; Staphylococcus aureus, read-out: minimum inhibitory concentration, Table 1 test organism 7, S. aureus strain): 3.1 µg/mL (≈ 2.14 µM) | MIC (Staphylococcus aureus; Staphylococcus aureus, read-out: minimum inhibitory concentration, Table 1 test organism 8, S. aureus strain): 1.6 µg/mL (≈ 1.1 µM) | MIC (Staphylococcus aureus; Staphylococcus aureus, read-out: minimum inhibitory concentration, Table 1 test organism 9, S. aureus strain): 1.6 µg/mL (≈ 1.1 µM) | MIC (Staphylococcus aureus; Staphylococcus aureus, read-out: minimum inhibitory concentration, Table 1 test organism 10, S. aureus strain): 1.6 µg/mL (≈ 1.1 µM) | MIC (Staphylococcus aureus; Staphylococcus aureus, read-out: minimum inhibitory concentration, Table 1 test organism 11, S. aureus strain): 1.6 µg/mL (≈ 1.1 µM) | MIC (Staphylococcus aureus; Staphylococcus aureus, read-out: minimum inhibitory concentration, Table 1 test organism 12, S. aureus strain): 1.6 µg/mL (≈ 1.1 µM) | MIC (Staphylococcus aureus; Staphylococcus aureus, read-out: minimum inhibitory concentration, Table 1 test organism 13, S. aureus strain): 0.8 µg/mL (≈ 0.552 µM) | MIC (Staphylococcus aureus; Staphylococcus aureus, read-out: minimum inhibitory concentration, Table 2 test organism 1, S. aureus strain): 1.6 µg/mL (≈ 1.1 µM) | MIC (Staphylococcus aureus; Staphylococcus aureus, read-out: minimum inhibitory concentration, Table 2 test organism 2, S. aureus strain): 1.6 µg/mL (≈ 1.1 µM) | MIC (Staphylococcus aureus; Staphylococcus aureus, read-out: minimum inhibitory concentration, Table 2 test organism 3, S. aureus strain): 1.6 µg/mL (≈ 1.1 µM) | MIC (Staphylococcus aureus; Staphylococcus aureus, read-out: minimum inhibitory concentration, Table 2 test organism 4, S. aureus strain): 1.6 µg/mL (≈ 1.1 µM) | MIC (Staphylococcus aureus; Staphylococcus aureus, read-out: minimum inhibitory concentration, Table 2 test organism 5, S. aureus strain): 1.6 µg/mL (≈ 1.1 µM) | MIC RANGE (Staphylococcus aureus; Table 4, S. aureus (30 strains)): 1.6 to 6.3 µg/mL | MIC (Streptococcus pyogenes): 0.8 µg/mL (≈ 0.552 µM) | ED50 (STAPH. AUREUS HH 127; iv): 0.156 mg/kg | ED50 (STAPH. AUREUS HH 127; sc): 0.31 mg/kg | PERCENT SURVIVAL (STAPH. AUREUS HH 127; Table 7: 40 mg/kg, 4 hr preinfection, S.C.): 20% | PERCENT SURVIVAL (STAPH. AUREUS HH 127; Table 8: 40 mg/kg (I.V.), 6 hr preinfection): 10%
